Results on ten substances are retold here after doi:10.1101/2024.06.10.598391v1 (bioRxiv, 2024).

Series [1] has as its system RAW 264.7 (macrophage-like cells - Mφs). Nature of the series: Micelle association with Mφs by flow cytometry. It counts as cell-based, murine. Conditions: 5 µM, 1:19 FAM-PA:Non-FAM-PA.
Series [2] has the same test system. As to the kind of experiment: Micelle surface attachment and internalization by Mφs, confocal microscopy. It is filed as cell-based, murine. As to conditions: 5 µM, 1:19 FAM-PA:Non-FAM-PA, LPS 0.1 µg/mL.
Series [3] is described as follows: Micelle morphology by negative-stain TEM. It counts as physicochemical. Conditions: 5 µM; for Morphology: negative-stain TEM (NanoW), 120 kV, categories by L/D; for Cylinder length / Sphere diameter: negative-stain TEM.
Series [4] in a line: Secondary structure by circular dichroism. It counts as physicochemical. As to conditions: CD, 40 μM in PBS; for combined α-helix and random coil content: sum of α-helix and random coil; for organized secondary structure (α-helix and β-sheet): sum of α-helix and β-sheet. In general terms: Circular dichroism is the unequal absorption of left and right circularly polarised light.

The subject of series [5] is RAW 264.7 (macrophage-like cells - Mφs). As to the kind of experiment: Cell viability of LPS-treated Mφs by flow cytometry. It counts as cell-based, murine. Conditions: for cell viability relative to untreated cells: 10 µM. (In general: A flow cytometer gives signals particle by particle.)
The subject of series [6] is secreted tumor necrosis factor-α (TNF-α) of LPS-activated RAW 264.7 Mφs. As to the kind of experiment: TNF-α secretion of LPS-activated Mφs. As to conditions: 6 h, ELISA. It is filed as cell-based, murine. (An ELISA detects its analyte on a solid surface through an enzyme-linked reagent.)
The mark [7] stands for this setting: LPS-treated (0.1 µg/mL) Mφs, six hours, flow cytometry.

On to “VIP(^SVIP)-KEKEEEEE-CONH2 [Palm2K-VIP-(KE)2E4]”, for which, in series [1] (6 hours), the “MFI of micelle-associated Mφs” value is on record as “greatest Mφ association”. For the same substance, the “micelle location on/in Mφs” value in series [2] (6 hours) is recorded as “cell membranes coated”. In addition, in series [3], the Morphology result is “Spheres + Short/Small Cylinders”, the Cylinder length is recorded as 20 - 300 nm and the Sphere diameter is reported as 10 - 20 nm.
“VIP(^SVIP)-KEKEKKKK-CONH2 [Palm2K-^SVIP-(KE)2K4]”: the “percentage of Mφs associated with fluorophore-labeled micelles” value in series [1] (1 hour) is “Mφs preferred to associate”. Besides, in series [3], the Morphology result is “Small/Medium Cylinders” and the Cylinder length is 100 - 400 nm.
On to “VIP(^SVIP)-KEKEKEKE-CONH2 [Palm2K-^SVIP-(KE)4]”, for which, in series [3], the Morphology result is “Spheres” and the Sphere diameter is listed as 10 - 15 nm. In addition, the “combined α-helix and random coil content” value in series [4] is recorded as 41.5%.
For “VIP(^SVIP)-KEKEKEKE-CONH2 [PalmK-^SVIP-(KE)4]”, in series [3], the Morphology result is given as “Mostly Large/Long Cylinders” and the Cylinder length was 1000 - 9000 nm.
For “VIP(^SVIP)-KEKEKEKE-CONH2 [PalmK-VIP-(KE)4]”, in series [5] (setting [7]), the “cell viability relative to untreated cells” value was 70 - 80%. The “micelle location on/in Mφs” value in series [2] (1 hour) is reported as “only found along the Mφ cell membrane”. In series [3], the Morphology result is reported as “Mostly Large/Long Cylinders” and the Cylinder length was 1000 - 9000 nm.
Consider “Ac-NSDLIATDSYTRMRKQVLANKKFHYLVN-NH2 [^SVIP]”, for which the “viability of treated cells” value in series [5] (LPS-treated Mφs, 5 µM, 6 hours (Figure 3a)) is on record as “remained high”. The Morphology entry in series [3] was “Amorphous aggregates”. Further, the “organized secondary structure (α-helix and β-sheet)” value in series [4] is reported as 46.6%.
Take “Ac-HSDAVFTDNYTRLRKQMAVKKYLNSILN-CONH2 [VIP, reference compound]”: the cytotoxicity result in series [5] (LPS-treated (0.1 µg/mL) Mφs, up to 5 µM, six hours, flow cytometry) is recorded as “Minimal cytotoxicity”. Besides, the Morphology result in series [3] is “lacks any particle structure”. Besides, the “modulation of TNF-α secretion” value in series [6] (1 µM and 2.5 µM) is “No appreciable modulation”; in series [6] (5 µM and 10 µM), “significant TNF-α suppression”. The “organized secondary structure (α-helix and β-sheet)” value in series [4] turned out to be 49.4%.
As to “VIP(^SVIP)-KEKEKKKK-CONH2 [Palm2K-VIP-(KE)2K4]”, in series [3], the Morphology entry was “Mostly Spheres” and the Sphere diameter is reported as 10 - 15 nm. Moreover, the “combined α-helix and random coil content” value in series [4] is given as 46.5%.
In the case of “VIP(^SVIP)-KEKEKEKE-CONH2 [Palm2K-VIP-(KE)4]”, the “cell viability relative to untreated cells” value in series [5] (setting [7]) is 70 - 80%. For the same substance, the “micelle location on/in Mφs” value in series [2] (1 hour) is reported as “only found along the Mφ cell membrane”. Besides, in series [3], the Morphology entry is listed as “Small/Medium Cylinders” and the Cylinder length was 100 - 700 nm. Also, the “modulation of TNF-α secretion” value in series [6] (5 µM and 10 µM) was “significant TNF-α suppression”.
Take “VIP(^SVIP)-KEKEEEEE-CONH2 [Palm2K-^SVIP-(KE)2E4]”: in series [3], the Morphology result is on record as “Spheres + Short/Small Cylinders”, the Cylinder length is on record as 50 - 250 nm and the Sphere diameter is reported as 10 - 20 nm.
